Assay results from patent publication US5008260A, “Cephem derivatives” (Eisai Co., Ltd., priority 1985, dated 1991).
≈ marks a conversion by molar mass, not a printed value.

How the values were obtained:
[1] = mouse, intravenous injection; prior-art compound; cited from earlier work
[2] = Acute toxicity LD50 (mouse, intravenous injection); settings: in vivo
[3] = tested on: Serratia marcescens ES-75; assay: Antibacterial activity (MIC), Serratia marcescens ES-75; format: cell-based; settings: ES75
Escherichia coli NIHJ = assay: Antibacterial activity (MIC), Escherichia coli NIHJ; format: cell-based
[4] = tested on: Pseudomonas maltophilia E04004; assay: Antibacterial activity (MIC), Pseudomonas maltophilia E04004; format: cell-based; settings: Stenotrophomonas maltophilia
[5] = tested on: Staphylococcus aureus 209-P; assay: Antibacterial activity (MIC), Staphylococcus aureus 209-P; format: cell-based
[6] = tested on: Pseudomonas aeruginosa EP-01; assay: Antibacterial activity (MIC), Pseudomonas aeruginosa EP-01; format: cell-based; settings: EP01
[7] = tested on: Citrobacter freundii EC-34; assay: Antibacterial activity (MIC), Citrobacter freundii EC-34; format: cell-based; settings: EC34; Citrobacter freundii EC-34, lactamase producing bacteria
[8] = tested on: Staphylococcus aureus E31106; assay: Antibacterial activity (MIC), Staphylococcus aureus E31106; format: cell-based; settings: Staphylococcus aureus E31106, lactamase producing bacteria

CO/N=C(\C(=O)N[C@@H]1C(=O)N2C(C(=O)[O-])=C(C[N+]34CCC(CC3)CC4)CS[C@H]12)c1csc(N)n1 [7β-[(Z)-2-(2-aminothiazol-4-yl)-2-methoxyiminoacetamido]-3-(1-quinuclidinio)methyl-3-cephem-4-carboxylate]
acute toxic value LD50 [1]: ≤ 100 mg/kg

CO/N=C(\C(=O)N[C@@H]1C(=O)N2C(C(=O)[O-])=C(C[N+]34CCC(O)(CC3)C4)CS[C@H]12)c1csc(N)n1 [Example 1, 7β-[(Z)-2-(2-Aminothiazol-4-yl)-2-methoxyiminoacetamido]-3-(4-hydroxy-1,4-methylene-1-piperidinio)methyl-3-cephem-4-carboxylate]
LD50 [2]: > 3000 mg/kg | MIC [3]: 0.1 µg/mL (≈ 0.197 µM) | MIC (Escherichia coli NIHJ): 0.05 µg/mL (≈ 0.0983 µM) | MIC [4]: 25 µg/mL (≈ 49.2 µM) | MIC [5]: 0.8 µg/mL (≈ 1.57 µM) | MIC [6]: 1.56 µg/mL (≈ 3.07 µM) | MIC [7]: 0.1 µg/mL (≈ 0.197 µM) | MIC [8]: 100 µg/mL (≈ 197 µM)

CO/N=C(\C(=O)N[C@@H]1C(=O)N2C(C(=O)[O-])=C(C[N+]34CCC(O)(CC3)C4)CS[C@H]12)c1nsc(N)n1 [Example 2, 7β-[(Z)-2-(5-Amino-1,2,4-thiadiazol-3-yl)-2-methoxyiminoacetamido]-3-(4-hydroxy-1,4-methylene-1-piperidinio)methyl-3-cephem-4-carboxylate]
LD50 [2]: > 3000 mg/kg | MIC [3]: 0.2 µg/mL (≈ 0.392 µM) | MIC (Escherichia coli NIHJ): 0.1 µg/mL (≈ 0.196 µM) | MIC [4]: 12.5 µg/mL (≈ 24.5 µM) | MIC [5]: 0.8 µg/mL (≈ 1.57 µM) | MIC [6]: 0.8 µg/mL (≈ 1.57 µM) | MIC [7]: 0.1 µg/mL (≈ 0.196 µM) | MIC [8]: 50 µg/mL (≈ 98.1 µM)

CO/N=C(\C(=O)N[C@@H]1C(=O)N2C(C(=O)[O-])=C(C[N+]34CCC(O)(CC3)CC4)CS[C@H]12)c1csc(N)n1 [Example 3, 7β-[(Z)-2-(2-Aminothiazol-4-yl)-2-methoxyiminoacetamido]-3-(4-hydroxy-1-quinuclidinio)methyl-3-cephem-4-carboxylate]
LD50 [2]: > 3000 mg/kg | MIC [3]: 0.1 µg/mL (≈ 0.191 µM) | MIC (Escherichia coli NIHJ): 0.05 µg/mL (≈ 0.0957 µM) | MIC [4]: 6.25 µg/mL (≈ 12 µM) | MIC [5]: 0.8 µg/mL (≈ 1.53 µM) | MIC [6]: 1.56 µg/mL (≈ 2.99 µM) | MIC [7]: 0.1 µg/mL (≈ 0.191 µM) | MIC [8]: 100 µg/mL (≈ 191 µM)

CO/N=C(\C(=O)N[C@@H]1C(=O)N2C(C(=O)[O-])=C(C[N+]34CCC(O)(CC3)CC4)CS[C@H]12)c1nsc(N)n1 [Example 4, 7β-[(Z)-2-(5-Amino-1,2,4-thiadiazol-3-yl)-2-methoxyiminoacetamido]-3-(4-hydroxy-1-quinuclidinio)methyl-3-cephem-4-carboxylate]
LD50 [2]: > 3000 mg/kg | MIC [3]: 0.2 µg/mL (≈ 0.382 µM) | MIC (Escherichia coli NIHJ): 0.1 µg/mL (≈ 0.191 µM) | MIC [4]: 6.25 µg/mL (≈ 11.9 µM) | MIC [5]: 1.56 µg/mL (≈ 2.98 µM) | MIC [6]: 0.8 µg/mL (≈ 1.53 µM) | MIC [7]: 0.1 µg/mL (≈ 0.191 µM) | MIC [8]: 25 µg/mL (≈ 47.7 µM)

CO/N=C(\C(=O)N[C@@H]1C(=O)N2C(C(=O)[O-])=C(C[N+]34CCC(C(N)=O)(CC3)CC4)CS[C@H]12)c1csc(N)n1 [Example 5, 7β-[(Z)-2-(2-Aminothiazol-4-yl)-2-methoxyiminoacetamido]-3-(4-carbamoyl-1-quinuclidinio)methyl-3-cephem-4-carboxylate]
LD50 [2]: > 3000 mg/kg | MIC [3]: 0.05 µg/mL (≈ 0.091 µM) | MIC (Escherichia coli NIHJ): 0.05 µg/mL (≈ 0.091 µM) | MIC [4]: 12.5 µg/mL (≈ 22.7 µM) | MIC [5]: 1.56 µg/mL (≈ 2.84 µM) | MIC [6]: 1.56 µg/mL (≈ 2.84 µM) | MIC [7]: 0.1 µg/mL (≈ 0.182 µM) | MIC [8]: 100 µg/mL (≈ 182 µM)

CO/N=C(\C(=O)N[C@@H]1C(=O)N2C(C(=O)[O-])=C(C[N+]34CCC(C(N)=O)(CC3)CC4)CS[C@H]12)c1nsc(N)n1 [Example 6, 7β-[(Z)-2-(5-Amino-1,2,4-thiadiazol-3-yl)-2-methoxyiminoacetamido]-3-(4-carbamoyl-1-quinuclidinio)methyl-3-cephem-4-carboxylate]
LD50 [2]: > 3000 mg/kg | MIC [3]: 0.2 µg/mL (≈ 0.363 µM) | MIC (Escherichia coli NIHJ): 0.1 µg/mL (≈ 0.182 µM) | MIC [4]: 3.13 µg/mL (≈ 5.68 µM) | MIC [5]: 3.13 µg/mL (≈ 5.68 µM) | MIC [6]: 0.4 µg/mL (≈ 0.726 µM) | MIC [7]: 0.1 µg/mL (≈ 0.182 µM) | MIC [8]: 25 µg/mL (≈ 45.4 µM)

CO/N=C(\C(=O)N[C@@H]1C(=O)N2C(C(=O)[O-])=C(C[N+]34CCC(CO)(CC3)CC4)CS[C@H]12)c1nsc(N)n1 [Example 14, 7β-[(Z)-2-(5-Amino-1,2,4-thiadiazol-3-yl)-2-methoxyiminoacetamido]-3-[4-hydroxymethyl-1-quinuclidinio]methyl-3-cephem-4-carboxylate]
MIC [3]: 0.2 µg/mL (≈ 0.372 µM) | MIC (Escherichia coli NIHJ): 0.1 µg/mL (≈ 0.186 µM) | MIC [4]: 3.13 µg/mL (≈ 5.82 µM) | MIC [5]: 1.56 µg/mL (≈ 2.9 µM) | MIC [6]: 0.8 µg/mL (≈ 1.49 µM) | MIC [7]: 0.1 µg/mL (≈ 0.186 µM) | MIC [8]: 50 µg/mL (≈ 93 µM)

CO/N=C(\C(=O)N[C@@H]1C(=O)N2C(C(=O)[O-])=C(C[N+]34CCC(C)(CC3)CC4)CS[C@H]12)c1nsc(N)n1 [Example 15, 7β-[(Z)-2-(5-Amino-1,2,4-thiadiazol-3-yl)-2-methoxyiminoacetamido]-3-(4-methyl-1-quinuclidinio)methyl-3-cephem-4-carboxylate]
MIC [3]: 0.2 µg/mL (≈ 0.383 µM) | MIC (Escherichia coli NIHJ): 0.05 µg/mL (≈ 0.0959 µM) | MIC [4]: 1.56 µg/mL (≈ 2.99 µM) | MIC [5]: 0.8 µg/mL (≈ 1.53 µM) | MIC [6]: 0.8 µg/mL (≈ 1.53 µM) | MIC [7]: 0.05 µg/mL (≈ 0.0959 µM) | MIC [8]: 50 µg/mL (≈ 95.9 µM)
